Assay results taken from PubChem BioAssay (NCI).
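GI50: concentration for 50% inhibition of growth. TGI: concentration producing complete growth inhibition.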

Legend:
Assay in all cases: NCI tumour cell line growth inhibition, 384-well format
[1] = tested on: 786-0 renal
[2] = tested on: A498 renal
[3] = tested on: A549 NSCLC
[4] = tested on: ACHN renal
[5] = tested on: BT-549 breast
[6] = tested on: CAKI-1 renal
[7] = tested on: CCRF-CEM leukemia
[8] = tested on: DU-145 prostate
[9] = tested on: EKVX NSCLC
[10] = tested on: HCT-116 colon
[11] = tested on: HCT-15 colon
[12] = tested on: HL-60(TB) leukemia
[13] = tested on: HOP-62 NSCLC
[14] = tested on: HOP-92 NSCLC
[15] = tested on: HS 578T breast
[16] = tested on: HT29 colon
[17] = tested on: IGROV1 ovarian
[18] = tested on: K-562 leukemia
[19] = tested on: KM12 colon
[20] = tested on: LOX IMVI melanoma
[21] = tested on: M14 melanoma
[22] = tested on: MALME-3M melanoma
[23] = tested on: MCF7 breast
[24] = tested on: MDA-MB-231 breast
[25] = tested on: MDA-MB-435 melanoma
[26] = tested on: MDA-MB-468 breast
[27] = tested on: MOLT-4 leukemia
[28] = tested on: NCI-H226 lung
[29] = tested on: NCI-H23 lung
[30] = tested on: NCI-H322M lung
[31] = tested on: NCI-H522 lung
[32] = tested on: NCI/ADR-RES ovarian
[33] = tested on: OVCAR-3 ovarian
[34] = tested on: OVCAR-4 ovarian
[35] = tested on: OVCAR-5 ovarian
[36] = tested on: OVCAR-8 ovarian
[37] = tested on: PC-3 prostate
[38] = tested on: RPMI-8226 leukemia
[39] = tested on: RXF 393 renal
[40] = tested on: SF-268 CNS
[41] = tested on: SF-295 CNS
[42] = tested on: SF-539 CNS
[43] = tested on: SK-MEL-2 melanoma
[44] = tested on: SK-MEL-28 melanoma
[45] = tested on: SK-OV-3 ovarian
[46] = tested on: SN12C renal
[47] = tested on: SNB-19 CNS
[48] = tested on: SNB-75 CNS
[49] = tested on: SW-620 colon
[50] = tested on: T-47D breast
[51] = tested on: TK-10 renal
[52] = tested on: U251 glioblastoma
[53] = tested on: UACC-257 melanoma
[54] = tested on: UACC-62 melanoma
[55] = tested on: UO-31 renal

SMILES: Clc1ccc(C(c2ccccc2Cl)C(Cl)Cl)cc1 (stereo not given)
- GI50 [1]: 16.2 µM
- TGI [1]: 29.9 µM
- GI50 [2]: 17.4 µM
- TGI [2]: 31.3 µM
- GI50 [3]: 16.9 µM
- TGI [3]: 31 µM
- GI50 [4]: 16 µM
- TGI [4]: 29.6 µM
- GI50 [5]: 18.5 µM
- TGI [5]: 32.6 µM
- GI50 [6]: 12.9 µM
- TGI [6]: 25.7 µM
- GI50 [7]: 16.2 µM
- TGI [7]: 29.8 µM
- GI50 [8]: 16.8 µM
- TGI [8]: 30.7 µM
- GI50 [9]: 17.3 µM
- TGI [9]: 31.2 µM
- GI50 [10]: 14.5 µM
- TGI [10]: 28.2 µM
- GI50 [11]: 13.9 µM
- TGI [11]: 27.3 µM
- GI50 [12]: 10.5 µM
- TGI [12]: 22.4 µM
- GI50 [13]: 19.5 µM
- TGI [13]: 33.7 µM
- GI50 [14]: 15.1 µM
- TGI [14]: 28.5 µM
- GI50 [15]: 17 µM
- TGI [15]: 30.8 µM
- GI50 [16]: 15.1 µM
- TGI [16]: 28.9 µM
- GI50 [17]: 15 µM
- TGI [17]: 28.4 µM
- GI50 [18]: 17.9 µM
- TGI [18]: 32.1 µM
- GI50 [19]: 16.3 µM
- TGI [19]: 30.1 µM
- GI50 [20]: 16.4 µM
- TGI [20]: 30.1 µM
- GI50 [21]: 16.6 µM
- TGI [21]: 30.4 µM
- GI50 [22]: 14.7 µM
- TGI [22]: 27.9 µM
- GI50 [23]: 17.6 µM
- TGI [23]: 31.7 µM
- GI50 [24]: 16.4 µM
- TGI [24]: 30.1 µM
- GI50 [25]: 16.8 µM
- TGI [25]: 30.7 µM
- GI50 [26]: 10.7 µM
- TGI [26]: 22.7 µM
- GI50 [27]: 5.16 µM
- TGI [27]: 17.6 µM
- GI50 [28]: 16.2 µM
- TGI [28]: 29.9 µM
- GI50 [29]: 17 µM
- TGI [29]: 30.9 µM
- GI50 [30]: 18.8 µM
- TGI [30]: 33.2 µM
- GI50 [31]: 12.9 µM
- TGI [31]: 25.7 µM
- GI50 [32]: 17.4 µM
- TGI [32]: 31.4 µM
- GI50 [33]: 15.5 µM
- TGI [33]: 29 µM
- GI50 [34]: 15.7 µM
- TGI [34]: 29.3 µM
- GI50 [35]: 16.8 µM
- TGI [35]: 30.7 µM
- GI50 [36]: 17 µM
- TGI [36]: 30.9 µM
- GI50 [37]: 14.3 µM
- TGI [37]: 27.6 µM
- GI50 [38]: 14 µM
- TGI [38]: 27 µM
- GI50 [39]: 13.2 µM
- TGI [39]: 26.1 µM
- GI50 [40]: 16.7 µM
- TGI [40]: 30.5 µM
- GI50 [41]: 16.2 µM
- TGI [41]: 29.8 µM
- GI50 [42]: 17.3 µM
- TGI [42]: 31.2 µM
- GI50 [43]: 19.1 µM
- TGI [43]: 33.2 µM
- GI50 [44]: 17.6 µM
- TGI [44]: 31.5 µM
- GI50 [45]: 16.1 µM
- TGI [45]: 29.8 µM
- GI50 [46]: 15.7 µM
- TGI [46]: 29.3 µM
- GI50 [47]: 17.2 µM
- TGI [47]: 31.2 µM
- GI50 [48]: 17.8 µM
- TGI [48]: 32.3 µM
- GI50 [49]: 15.1 µM
- TGI [49]: 28.7 µM
- GI50 [50]: 15.5 µM
- TGI [50]: 29.1 µM
- GI50 [51]: 16.7 µM
- TGI [51]: 30.6 µM
- GI50 [52]: 16.6 µM
- TGI [52]: 30.5 µM
- GI50 [53]: 17.6 µM
- TGI [53]: 31.5 µM
- GI50 [54]: 17 µM
- TGI [54]: 30.8 µM
- GI50 [55]: 16.6 µM
- TGI [55]: 30.5 µM
